Experimental data: patent US4542123A (Massachusetts Institute of Technology, priority 1982, dated 1985)
Entries after “also recorded” stand apart in the source; their conditions may differ.

Tests used:
[1] = Plasma amino acid levels after glucose ingestion (Example I, Table 1); format: in vivo, human
Description: (§1) Six healthy, non-obese, fasting subjects each received, on different days 0, 6, 12.5, 25 or 50 g of glucose (Glucola) in a total volume of 100 ml.
(§2) Following a protocol approved by the Massachusetts Institute of Technology Committee on the Use of Humans as Experimental Subjects, 6 healthy volunteer outpatients, aged 25-33 years, participated in the study; 3 were males and 3 females. Mean weight was 60 kg for the women and 70 for the men; all subjects were within 10% of their ideal body weight as determined by Metropolitan Life Insurance Company tables. […] Subjects were asked to take meals rich in carbohydrate content (about 300 g/day) for 3 days before beginning the study. On 5 separate days, each subject fasted from 8 p.m. until 9 the next morning and then received a load of 0, 6, 12.5, 25 or 50 g of glucose (caffeine-free glucola) dissolved in water in a total volume of 100 ml; the order of doses was randomized. Venous blood samples were drawn from the antecubital vein through an indwelling catheter at 0, 60 and 120 min for all doses and additionally at 30 and 180 min for the 12.5, 25 and 50 g doses. Blood was collected in heparanized tubes; after centrifugation plasma was stored at -20° C. until analyzed. […] Glucose was analyzed spectrophotometrically after reaction with O-toluidine in hot acidic acid (Sigma Bulletin #635;15). Insulin was measured using a commercial radioimmunoassay kit by a double antibody method (Bio-RIA, Louisville, Ky.). Plasma tryptophan was measured fluorometrically on 20 μl plasma aliquots by the method of Denckla and Dewey, J. Lab. Clin. Med. 69: 160-169, 1967, as modified by Lehman, Scand. J. Clin. Lab. Invest. 28: 49-55, 1971. Branched-chain amino acids and aromatic amino acids were measured in 500 μl aliquots of plasma, deproteinized with sulfosalicylic acid, using a Beckman amino acid analyzer (Beckman Instruments, Palo Alto, Calif., Model 119C).
(§3) Data, given as means ±SE errors, were analyzed by two-way analysis of variance; factors compared were dose and time. The Scheffe test was employed to test the statistical significance of differences; p<0.05 was considered significant. Areas under the curves were evaluated by the method of trapezoid approximation. Student tests for paired data were used to evaluate the significance of changes in individual amino acids. Amino acid concentrations after treatments for each subject were also expressed as a percentage of that day's pretreatment levels; mean percent changes were then calculated for each treatment and time interval.
Sum of the LNAA: total concentration of leucine, isoleucine, valine,
the sum of the LNAA, measured 0, 60 and 120 min after 6 nonobese, fasting
subjects ingested 0, 6, 12.5, 25 or 50 g of glucose. All plasma amino
acids, except tryptophan, were measured on a Beckman amino acid analyzer.
Tryptophan was measured by the method of Denckla and Dewey. Data are
expressed as means ± S.E.M.

[2] = Plasma insulin after glucose ingestion, radioimmunoassay (Example I); format: in vivo, human
Description: as §1, §2, §3

clinical = conditions: in vivo
Description: as §1
as §2, with “Venous blood samples were drawn from the antecubital vein through an indwelling catheter at 0, 60 and 120 min for all doses and additionally at 30 and 180 min for the 12.5, 25 and 50 g doses.” left out, “Clin. Med. 69: 160-169, 1967, as modified by Lehman, Scand. J. Clin. Lab. Invest. 28: 49-55, 1971.” left out
Data, given as means ±SE errors, were analyzed by two-way analysis of variance; factors compared were dose and time. […] Areas under the curves were evaluated by the method of trapezoid approximation. […] Amino acid concentrations after treatments for each subject were also expressed as a percentage of that day's pretreatment levels; mean percent changes were then calculated for each treatment and time interval.

## O=C[C@H](O)[C@@H](O)[C@H](O)[C@H](O)CO [Glucose, glucose]
[1]; glucose 25 g, 0 min
  Plasma Iso level: 71 ± 6 nmol/mL
  Plasma LNAA (sum): 639 ± 79 nmol/mL
  Plasma Leu level: 130 ± 13 nmol/mL
  Plasma Met level: 26 ± 3 nmol/mL
  Plasma Phe level: 56 ± 3 nmol/mL
  Plasma Trp level: 47 ± 2 nmol/mL
  Plasma Tyr level: 63 ± 3 nmol/mL
  Plasma Val level: 294 ± 50 nmol/mL
  Trp/LNAA: .073
[1]; glucose 25 g, 60 min
  Plasma Iso level: 48 ± 4 nmol/mL
  Plasma LNAA (sum): 466 ± 45 nmol/mL
  Plasma Leu level: 84 ± 10 nmol/mL
  Plasma Met level: 21 ± 2 nmol/mL
  Plasma Phe level: 47 ± 4 nmol/mL
  Plasma Trp level: 42 ± 2 nmol/mL
  Plasma Tyr level: 49 ± 2 nmol/mL
  Plasma Val level: 218 ± 29 nmol/mL
  Trp/LNAA: .091
[1]; glucose 25 g, 120 min
  Plasma Iso level: 46 ± 4 nmol/mL
  Plasma LNAA (sum): 454 ± 40 nmol/mL
  Plasma Leu level: 91 ± 8 nmol/mL
  Plasma Met level: 19 ± 2 nmol/mL
  Plasma Phe level: 41 ± 2 nmol/mL
  Plasma Trp level: 41 ± 3 nmol/mL
  Plasma Tyr level: 46 ± 2 nmol/mL
  Plasma Val level: 212 ± 26 nmol/mL
  Trp/LNAA: .089
[1]; glucose 50 g, 0 min
  Plasma Iso level: 61 ± 4 nmol/mL
  Plasma LNAA (sum): 573 ± 60 nmol/mL
  Plasma Leu level: 114 ± 11 nmol/mL
  Plasma Met level: 26 ± 2 nmol/mL
  Plasma Phe level: 50 ± 2 nmol/mL
  Plasma Trp level: 46 ± 2 nmol/mL
  Plasma Tyr level: 59 ± 4 nmol/mL
  Plasma Val level: 262 ± 40 nmol/mL
  Trp/LNAA: .080
[1]; glucose 50 g, 60 min
  Plasma Iso level: 48 ± 2 nmol/mL
  Plasma LNAA (sum): 469 ± 52 nmol/mL
  Plasma Leu level: 93 ± 11 nmol/mL
  Plasma Met level: 21 ± 2 nmol/mL
  Plasma Phe level: 50 ± 4 nmol/mL
  Plasma Trp level: 40 ± 1 nmol/mL
  Plasma Tyr level: 43 ± 3 nmol/mL
  Plasma Val level: 215 ± 32 nmol/mL
  Trp/LNAA: .085
[1]; glucose 50 g, 120 min
  Plasma Iso level: 36 ± 4 nmol/mL
  Plasma LNAA (sum): 372 ± 50 nmol/mL
  Plasma Leu level: 72 ± 10 nmol/mL
  Plasma Met level: 18 ± 2 nmol/mL
  Plasma Phe level: 37 ± 2 nmol/mL
  Plasma Trp level: 35 ± 2 nmol/mL
  Plasma Tyr level: 40 ± 4 nmol/mL
  Plasma Val level: 170 ± 30 nmol/mL
  Trp/LNAA: .094
[1]; healthy fasting subjects, most clearly observed after 120 min
  Mean percent reductions of LNAA, dose-dependence: tended to exhibit dose-dependence; also recorded: dose-related decreases in plasma LNAA concentrations
[1]; healthy young fasting subjects
  Glucose doses needed to increase the plasma TRP/LNAA ratio: 25 to 50 g
[1]; high intra- and inter-individual variations in basal LNAA
  Mean absolute LNAA concentrations, dose-related decrease: no significant dose-related decreases in mean absolute LNAA concentrations
[1]; smaller reduction in plasma tryptophan
  Tryptophan/LNAA ratio: became elevated
[1]; some subjects
  Glucose dose sufficient to decrease LNAA: 6 g
[1]; subject 2
  Glucose dose probably required to reduce plasma LNAA: ~12.5 g
[1]; subject 4
  Glucose dose that may have been needed to reduce plasma LNAA: ~25 g
[1]; subjects 1, 3, 5 and 6, one or more of the times tested
  Glucose dose that may have been sufficient to reduce plasma LNAA: ~6 g
[2]; 50 g vs 25 g glucose
  Elevation in insulin, 50-g vs 25-g dose: greater elevation in insulin than the 25-g dose in 4 of the 6 subjects
[2]; 30 min after 12.5, 25 or 50 g of glucose
  Insulin levels: significantly elevated
[2]; before ingestion (baseline)
  Mean insulin concentration: 9±0.9 μU/ml
[2]; glucose 12.5 g, 30 min
  Mean insulin concentration: 21.3±3.8 μU/ml
[2]; glucose 25 g, 30 min
  Mean insulin concentration: 44±5.0 μU/ml
[2]; glucose 50 g, 30 min
  Mean insulin concentration: 58±6.9 μU/ml
clinical; human
  Mean plasma glucose concentration: 83±2.2 mg %
clinical; human, po, Mean plasma glucose concentration
  concentration at 0.5 h: 1050 ± 86 µg/mL
clinical
  Time for plasma glucose to return to baseline: 60 to 120 min
